pIC50: −log10 of the molar value. Where two headings read alike, the source gives them in different places.

One experiment concerns the target T1, protein kinase D2 (PKD2) (Homo sapiens, UniProt Q9BZL6).
T1 construct: This assay is performed with full length wild-type enzyme purchase from Invitrogen; purchased Invitrogen
T1 sequence (Q9BZL6 1-878): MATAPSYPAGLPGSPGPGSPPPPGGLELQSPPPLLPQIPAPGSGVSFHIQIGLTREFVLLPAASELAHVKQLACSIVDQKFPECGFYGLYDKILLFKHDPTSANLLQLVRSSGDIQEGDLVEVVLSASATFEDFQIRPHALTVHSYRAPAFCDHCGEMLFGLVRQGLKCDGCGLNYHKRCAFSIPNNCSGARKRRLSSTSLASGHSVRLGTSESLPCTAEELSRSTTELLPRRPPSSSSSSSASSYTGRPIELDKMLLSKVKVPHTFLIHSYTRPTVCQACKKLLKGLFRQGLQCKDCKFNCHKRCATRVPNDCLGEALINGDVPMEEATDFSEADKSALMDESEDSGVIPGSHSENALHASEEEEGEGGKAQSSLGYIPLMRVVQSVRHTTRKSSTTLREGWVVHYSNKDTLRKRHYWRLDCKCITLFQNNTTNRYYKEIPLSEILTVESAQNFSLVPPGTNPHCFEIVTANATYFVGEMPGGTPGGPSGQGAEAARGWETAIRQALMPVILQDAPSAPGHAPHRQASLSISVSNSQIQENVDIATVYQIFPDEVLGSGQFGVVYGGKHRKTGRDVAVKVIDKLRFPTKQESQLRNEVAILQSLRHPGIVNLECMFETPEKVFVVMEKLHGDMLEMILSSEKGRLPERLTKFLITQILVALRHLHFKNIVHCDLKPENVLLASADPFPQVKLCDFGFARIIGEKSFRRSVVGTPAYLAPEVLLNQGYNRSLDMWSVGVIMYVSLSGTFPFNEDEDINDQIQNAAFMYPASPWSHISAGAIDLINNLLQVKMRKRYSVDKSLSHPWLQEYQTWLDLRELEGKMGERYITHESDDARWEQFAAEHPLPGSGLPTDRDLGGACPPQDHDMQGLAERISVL
The experiment is described as follows: PKD2 TR-FRET (LANCE) kinase assay. Type of experiment: biochemical. From the text: (§1) The assay to measure protein kinase D2 (PKD2) activity is a time-resolved fluorescence resonance transfer (TR-FRET) assay using PerkinElmer's LANCE™ technology. In this case, a biotinylated syntide-2 peptide is used as the substrate in this reaction. Phosphorylation of the syntide-2 substrate is detected by a specific antibody that recognizes the phosphorylated peptide. A second fluorophore, APC, is conjugated to streptavidin that binds the biotinylated syntide-2 peptide. […] Therefore, when the europium labeled secondary antibody binds on the phosphorylated peptide, it is brought into close contact with the APC and excites this fluorophore.
(§2) This assay is performed with full length wild-type enzyme purchase from Invitrogen. The reaction buffer consists of 35 mM Tris-HCl pH7.5, 5 mM MgCl2, 0.02% Tween-20, 20 μM ATP, 1 mM DTT and 0.2 μg/mL PKD2 enzyme. The enzyme reaction is initiated by the addition of 2 μM syntide-2 peptide substrate and the reaction carried out for 50 minutes at room temperature. The reaction is stopped by a stop/detection buffer consisting of 50 mM EDTA, 0.18 mg/mL rabbit polyclonal anti-phospho syntide-2 antibody, 0.5 nM europium labeled anti-rabbit IgG and 10 nM streptavidin conjugated APC. After a one hour incubation with the stop/detection buffer, the reaction is read on an Envision 2100 Reader using a LANCE™ Eu/APC dual protocol. […] IC50 values are calculated using an Activity Base (IDBS) software program.
Background: Time-resolved FRET reads energy transfer from a long-lived donor to a nearby acceptor.

Another experiment addresses T2, protein kinase D3 (PKD3) (Homo sapiens, UniProt O94806).
T2 construct: This assay is performed with full length wild-type enzyme that is purchased from Invitrogen; purchased Invitrogen
T2 sequence (O94806 1-890): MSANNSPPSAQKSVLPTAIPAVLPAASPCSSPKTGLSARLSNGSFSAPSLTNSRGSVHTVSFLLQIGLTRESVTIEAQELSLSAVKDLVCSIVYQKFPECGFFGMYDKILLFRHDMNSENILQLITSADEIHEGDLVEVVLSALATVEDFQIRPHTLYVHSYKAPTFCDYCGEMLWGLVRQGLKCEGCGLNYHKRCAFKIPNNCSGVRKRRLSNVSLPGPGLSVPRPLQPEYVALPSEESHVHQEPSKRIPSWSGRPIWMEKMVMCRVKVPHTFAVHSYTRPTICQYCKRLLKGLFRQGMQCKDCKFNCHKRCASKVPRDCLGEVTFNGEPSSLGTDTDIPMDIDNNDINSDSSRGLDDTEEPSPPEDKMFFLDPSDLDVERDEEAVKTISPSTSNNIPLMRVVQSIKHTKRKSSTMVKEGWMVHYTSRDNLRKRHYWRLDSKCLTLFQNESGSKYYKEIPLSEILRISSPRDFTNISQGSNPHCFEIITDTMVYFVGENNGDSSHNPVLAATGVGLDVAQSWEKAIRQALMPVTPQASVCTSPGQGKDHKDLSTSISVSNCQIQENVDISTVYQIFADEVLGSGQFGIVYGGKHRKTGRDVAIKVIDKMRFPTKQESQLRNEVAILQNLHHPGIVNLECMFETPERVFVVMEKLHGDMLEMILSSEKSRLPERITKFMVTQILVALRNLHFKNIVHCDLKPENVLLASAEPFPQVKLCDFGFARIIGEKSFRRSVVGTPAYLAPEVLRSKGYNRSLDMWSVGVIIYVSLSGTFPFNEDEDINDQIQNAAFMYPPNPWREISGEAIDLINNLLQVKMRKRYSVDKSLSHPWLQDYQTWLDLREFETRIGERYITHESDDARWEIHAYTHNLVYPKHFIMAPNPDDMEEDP
The experiment is described as follows: PKD3 TR-FRET (LANCE) kinase assay. The note with it: full length wild-type enzyme, 20 μM ATP; read-out: Inhibitory Activity PKD3. The class given is biochemical.
Source text: as §1, with “D3 (PKD3)” for “D2 (PKD2)”
as §2, with “that is purchased” for “purchase”, “PKD3” for “PKD2”, “LANCET™” for “LANCE™”

The mark [1] stands for this setting: full length wild-type enzyme, 20 μM ATP, read-out: Inhibitory Activity PKD2.

Regarding `O=C(NCCO)C1CCN(c2nc(-c3ccnc(NC4CCOCC4)c3)cc3cnccc23)CC1` [Example 16, 1-{3-[2-(Tetrahydropyran-4-ylamino)pyridin-4-yl]-[2,6]naphthyridin-1-yl}piperidine-4-carboxylic acid (2-hydroxyethyl)amide], the pIC50 against protein kinase D2 (PKD2) is 7.96; on protein kinase D3 (PKD3) it was 8.70.
On to `O=C(NC1CC1)C1CCN(c2nc(-c3ccnc(NC4CCOCC4)c3)cc3cnccc23)CC1` [Example 17, 1-{3-[2-(Tetrahydropyran-4-ylamino)pyridin-4-yl]-[2,6]naphthyridin-1-yl}piperidine-4-carboxylic acid cyclopropylamide], for which the pIC50 on protein kinase D2 (PKD2) (setting [1]) was 7.85; at protein kinase D3 (PKD3), 8.52.
In the same order, the values of `CCNC(=O)N1CCN(c2nc(-c3ccnc(Nc4ccn(C)n4)c3)cc3cnccc23)CC1` [Example 18, 4-{3-[2-(1-Methyl-1H-pyrazol-3-ylamino)pyridin-4-yl]-[2,6]naphthyridin-1-yl}piperazine-1-carboxylic acid ethylamide] are 6.90 and 7.52.
As to `Cn1ccc(Nc2cc(-c3cc4cnccc4c(N4CCC(C(N)=O)CC4)n3)ccn2)n1` [Example 19, 1-{3-[2-(1-Methyl-1H-pyrazol-3-ylamino)pyridin-4-yl]-[2,6]naphthyridin-1-yl}piperidine-4-carboxylic acid amide], the figures for the pIC50 at protein kinase D2 (PKD2) (setting [1]) and at protein kinase D3 (PKD3) were 8.70 and 9.40, respectively.
In the same order, the values of `Cn1ccc(Nc2cc(-c3cc4cnccc4c(N4CCC5(CCNC5=O)CC4)n3)ccn2)n1` [Example 20, 8-{3-[2-(1-Methyl-1H-pyrazol-3-ylamino)pyridin-4-yl]-[2,6]naphthyridin-1-yl}-2,8-diaza-spiro[4.5]decan-1-one] are 7.23 and 8.05.
Consider `COCCNc1cc(-c2cc3cnccc3c(N3CCNCC3)n2)ccn1` [Example 21, (2-Methoxyethyl)-[4-(1-piperazin-1-yl-[2,6]naphthyridin-3-yl)-pyridin-2-yl]amine], for which the pIC50 at protein kinase D2 (PKD2) (setting [1]) is 6.92; at protein kinase D3 (PKD3) it was 8.00.

The record behind these values is patent publication US20120142685A1, “ORGANIC COMPOUNDS” (priority 2007, published 2012).
